In one experiment the test system is rat renal membranes. The following applies: cited from earlier work.
A further experiment deals with T1, the receptor (Homo sapiens, UniProt Q03431).
T1 sequence (Q03431 27-593): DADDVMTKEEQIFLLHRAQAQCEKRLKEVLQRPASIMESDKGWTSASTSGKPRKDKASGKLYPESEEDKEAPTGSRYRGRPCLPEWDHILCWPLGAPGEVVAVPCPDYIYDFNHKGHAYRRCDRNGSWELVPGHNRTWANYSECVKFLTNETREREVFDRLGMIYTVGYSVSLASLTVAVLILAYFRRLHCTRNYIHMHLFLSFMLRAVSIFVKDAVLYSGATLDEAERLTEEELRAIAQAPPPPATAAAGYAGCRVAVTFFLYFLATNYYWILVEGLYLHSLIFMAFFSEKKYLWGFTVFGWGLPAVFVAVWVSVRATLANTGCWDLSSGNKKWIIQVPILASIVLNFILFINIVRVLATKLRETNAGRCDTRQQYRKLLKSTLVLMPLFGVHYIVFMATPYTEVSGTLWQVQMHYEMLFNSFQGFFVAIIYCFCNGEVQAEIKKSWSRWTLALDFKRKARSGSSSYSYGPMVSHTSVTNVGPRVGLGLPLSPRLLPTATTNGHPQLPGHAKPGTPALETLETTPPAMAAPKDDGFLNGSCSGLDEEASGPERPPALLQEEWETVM
The note with it: cited from earlier work.

Another experiment deals with AC. The note with it: cited from earlier work.
The target of a further experiment is T2, rat PTH-1 receptor (Rattus norvegicus, UniProt P25961).
T2 construct: host or cells: CHO cells
T2 sequence (P25961 27-591): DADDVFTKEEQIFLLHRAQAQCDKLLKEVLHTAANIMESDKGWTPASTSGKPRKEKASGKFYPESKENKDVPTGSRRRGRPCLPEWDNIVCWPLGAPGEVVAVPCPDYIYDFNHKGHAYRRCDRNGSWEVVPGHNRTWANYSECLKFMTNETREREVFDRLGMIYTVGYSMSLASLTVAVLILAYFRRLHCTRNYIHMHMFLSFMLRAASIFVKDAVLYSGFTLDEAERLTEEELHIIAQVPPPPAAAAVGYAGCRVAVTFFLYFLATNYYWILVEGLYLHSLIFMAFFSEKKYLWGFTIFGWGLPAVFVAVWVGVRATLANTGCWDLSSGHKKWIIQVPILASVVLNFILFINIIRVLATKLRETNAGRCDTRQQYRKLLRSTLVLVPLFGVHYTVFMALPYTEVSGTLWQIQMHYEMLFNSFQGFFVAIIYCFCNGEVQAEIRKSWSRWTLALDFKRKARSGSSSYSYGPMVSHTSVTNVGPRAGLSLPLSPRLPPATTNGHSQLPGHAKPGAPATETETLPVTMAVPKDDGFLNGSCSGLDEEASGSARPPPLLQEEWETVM
The following applies: CHO cells expressing the cloned rat PTH-1 receptor; cited from earlier work.

For the next experiment, the system named is hP1R-Tether constructs. Briefly: Q-PTH(1–34) cAMP stimulation of the hP1R-Tether constructs and alanine mutants in COS-7 cells. Type of experiment: cell-based, human. On the procedure:
(§1) Cell Culture: COS-7 cells were cultured at 37° C. in T-75 flasks ([…] in Dulbecco's modified Eagle's medium (DMEM) supplemented with fetal bovine serum (10%), penicillin G (20 units/ml), streptomycin sulfate (20 μg/ml) and amphotericin B (0.05 μg/ml) in a humidified atmosphere containing 5% CO2. Cells were sub-cultured in 24-well plates and, when confluent, were treated with fresh media and shifted to 33° C. for 12 to 24 h prior to the assay (Bergwitz, C., et al., J. Biol. Chem. 272:28861–28868 (1997); Abell, A., et al., J. Biol. Chem. 271:4518–4527 (1996)).
(§2) PTH Receptor mutagenesis and COS-7 cell expression: The pcDNA-1-based plasmid encoding the intact HPTH-1 receptor (HK-WT in reference (Schipani, E., et al., Endocrinol. 132:2157–2165 (1993)) and herein called hP1R-WT) was used for studies in COS-7 cells. The truncated human PTH-1 receptor (hP1R-de1Nt) (FIG. 18) was constructed from the HK-WT plasmid by oligonucleotide-directed mutagenesis (Kunkel, T. A., Proc. Natl. Acad. Sci. USA 82:488–492 (1985)). […]
(§3) cAMP Stimulation: Stimulation of cells with peptide analogs was performed in 24-well plates. […] The cAMP content of the diluted lysate was determined by radioimmunoassay.

The target in a further experiment is T3, hP1R-[R^11]-Tether(1–11) (Homo sapiens, UniProt Q03431).
T3 construct: expressed in transfected cells; host or cells: COS-7 cells, transient, DEAE-dextran
T3 sequence (Q03431 with tags, fused parts or gaps): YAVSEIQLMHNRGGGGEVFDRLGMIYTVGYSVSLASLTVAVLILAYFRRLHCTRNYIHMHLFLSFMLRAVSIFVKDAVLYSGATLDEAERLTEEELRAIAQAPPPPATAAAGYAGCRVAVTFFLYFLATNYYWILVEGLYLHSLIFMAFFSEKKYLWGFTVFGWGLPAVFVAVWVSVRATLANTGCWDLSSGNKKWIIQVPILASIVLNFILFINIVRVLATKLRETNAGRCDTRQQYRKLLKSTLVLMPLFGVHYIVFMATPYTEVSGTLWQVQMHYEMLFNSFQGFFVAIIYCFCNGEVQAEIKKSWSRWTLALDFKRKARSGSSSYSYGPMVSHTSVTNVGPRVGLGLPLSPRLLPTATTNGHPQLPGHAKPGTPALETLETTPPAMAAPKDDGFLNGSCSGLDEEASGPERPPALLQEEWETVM
In words: Q-PTH(1–34) cAMP dose-response, COS-7 cells expressing hP1R-[R11]-Tether(1–11). Type of experiment: cell-based. How it is done:
as §1, §2, §3

In a further experiment the target is T4, hP1r-de1NT (Homo sapiens, UniProt Q03431).
T4 construct: expressed in transfected cells; host or cells: COS-7 cells, transient, DEAE-dextran
T4 sequence (Q03431 with tags, fused parts or gaps): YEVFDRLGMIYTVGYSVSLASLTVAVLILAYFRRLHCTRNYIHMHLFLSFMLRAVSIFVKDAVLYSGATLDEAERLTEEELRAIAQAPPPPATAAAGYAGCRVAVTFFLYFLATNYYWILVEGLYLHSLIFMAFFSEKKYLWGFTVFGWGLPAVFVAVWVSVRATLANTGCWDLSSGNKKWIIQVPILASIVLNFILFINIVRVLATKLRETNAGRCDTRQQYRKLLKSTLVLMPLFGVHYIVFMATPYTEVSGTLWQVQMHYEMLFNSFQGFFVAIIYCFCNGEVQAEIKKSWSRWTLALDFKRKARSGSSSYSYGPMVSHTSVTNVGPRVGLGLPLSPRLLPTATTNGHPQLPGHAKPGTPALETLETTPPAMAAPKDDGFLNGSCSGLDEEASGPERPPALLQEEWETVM
In words: Q-PTH(1–34) cAMP dose-response, COS-7 cells expressing hP1R-delNT. The format is cell-based. How it is done: as §1, §2, §3

In another experiment the target is T5, hP1R-Tether(1–9) (Homo sapiens, UniProt Q03431).
T5 construct: expressed in transfected cells; host or cells: COS-7 cells, transient, DEAE-dextran
T5 sequence (Q03431 with tags, fused parts or gaps): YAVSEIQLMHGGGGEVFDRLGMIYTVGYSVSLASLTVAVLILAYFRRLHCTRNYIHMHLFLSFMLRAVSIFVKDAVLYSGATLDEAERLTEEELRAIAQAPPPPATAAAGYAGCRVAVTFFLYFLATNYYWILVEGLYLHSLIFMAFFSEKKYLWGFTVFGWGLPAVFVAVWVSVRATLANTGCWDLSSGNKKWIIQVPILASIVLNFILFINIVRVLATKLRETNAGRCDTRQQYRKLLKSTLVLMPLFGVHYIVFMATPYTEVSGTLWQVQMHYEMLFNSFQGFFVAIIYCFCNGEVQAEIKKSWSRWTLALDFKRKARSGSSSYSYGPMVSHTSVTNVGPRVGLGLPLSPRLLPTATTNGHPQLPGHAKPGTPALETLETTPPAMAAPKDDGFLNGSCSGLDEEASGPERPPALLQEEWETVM
In words: Q-PTH(1–34) cAMP dose-response, COS-7 cells expressing hP1R-Tether(1–9). The format is cell-based. On the procedure:
as §1, §2, §3

With “bPTH(1–12) (AVSEIQFMHNLG; Parathyroid hormone; UniProt P01268 32-43, looked up, fragment) [short NH2-terminal PTH peptide investigated previously]”, the “activity in adenylyl cyclase assays” value with rat renal membranes is “inactive”.

PTH(15–34): the “binding to the receptor” value with the receptor is “binds weakly”. Further, the “activation of AC” value with AC was “does not activate AC”.

Take “PTHrP(1–16) (AVSEHQLLHDKGKSIQ; Parathyroid hormone-related protein; UniProt P12272 37-52, looked up, fragment) [short NH2-terminal PTHrP peptide investigated previously]”: in the experiment with rat PTH-1 receptor, the “activity in AC assays” value is “inactive”.

As for “[Ala^1,3,10,12,Arg^11, Tyr^34]hPTH(1–34)NH2 [Q-PTH(1–34)]”, the “dose-response curves for the hP1R-Tether constructs relative to hP1R-de1NT” value with hP1R-Tether constructs was “parallel and left-shifted”. In the experiment with hP1R-Tether constructs (alanine scan mutants), the “cAMP response of the alanine mutants of hP1R-[R11]-Tether(1–11) to exogenous ligand” value is on record as “responded well”. The “cAMP dose-response relative to the intact wildtype receptor” value on hP1R-[R^11]-Tether(1–11), at hP1r-de1NT and on hP1R-Tether(1–9) was “right-shifted response” throughout. Also, the “maximum cAMP response” value at hP1R-[R^11]-Tether(1–11), on hP1r-de1NT and on hP1R-Tether(1–9) was “capable of producing a maximum cAMP response” throughout.

Source of the values: patent US7057012B1, “PTH functional domain conjugate peptides, derivatives thereof and novel tethered ligand-receptor molecules” (The General Hospital Corporation, priority 1998, dated 2006).
